According to patent US8227457B2, “Method for treatment of diseases” (DMI Acquisition Corp., priority 2009, dated 2012):

Assays:
HUVECs [1] = test: HUVEC tube formation assay on matrigel plugs; type: cell-based, human; conditions: 18 hours, 5% FCS
Procedure: To investigate the formation of capillary-like structures by HUVECs, the Angiogenesis System: Endothelial Cell Tube Formation Assay was purchased from BD Biosciences (San Jose, Calif.) and used according to the manufacturer's protocol. In brief, 100,000 HUVECs were seeded onto rehydrated matrigel plugs in 96 well tissue culture plates in the presence of 5% FCS to induce tube formation.
Endothelial cells when cultured in the presence of angiogenic substances and supplied with an extracellular matrix scaffold will differentiate into structures loosely resembling capillary vessels.

HUVECs [2] = test: HUVEC scratch migration assay; type: cell-based, human; conditions: 50 μM, 75 μM and 100 μM
Procedure: Passage 8 HUVECs, lot number 8750 (obtained from Lonza), were plated in 6-well plates (ICS BioExpress) in endothelial growth medium-2 (EGM-2) complete medium (obtained from Lonza). […] The monolayers were then “scratched” with a 1000 μl pipet tip and washed two times with warm EGM-2 medium. […] The wells were photographed again. The gaps were measured in each photograph using Adobe Photoshop software, and gap measurements are presented as the number of pixels in the gap.

[3] = test system: human retinal endothelial cells; test: Transendothelial electrical resistance (TER), Example 4, retinal cells; type: cell-based; conditions: 1 μM, retinal endothelial cell monolayers
Procedure: (§1) […]. Assays were also performed in the same manner using passage 8 human brain endothelial cells and passage 8 human umbilical vein endothelial cells.
(§2) An initial TER measurement was taken for each insert using EVOM^2 voltohmmeter connected to an STX100 electrode (both from World Precision Instruments). Measurements were also taken at 24, 48, 72 and 144 hours. All data are presented as TER measurements/cm^2 of insert with TER of blank inserts subtracted.

[4] = test system: human brain endothelial cells; test: Transendothelial electrical resistance (TER), Example 4, brain cells; type: cell-based; conditions: 1 μM, brain endothelial cell monolayers, except at the earliest time point
Procedure: as §1, §2

[5] = test system: human umbilical vein endothelial cells; test: Transendothelial electrical resistance (TER), Example 4, HUVEC; type: cell-based; conditions: 1 μM, umbilical vein endothelial cell monolayers
Procedure: as §1, §2

Akt = Akt phosphorylation (CASE ELISA kit for AKT S473) in retinal endothelial cells; type: cell-based, human; conditions: all of the concentrations (0.5-50.0 μM)
Procedure: The cells were grown in a 25 cm^2 flask to near confluence in EGM-2 medium (Lonza, Walkersville, Md.) containing 2% fetal calf serum (Lonza). […] The plate was incubated at 37° C. with 5% CO2 for 24 hours. […] After this incubation, the cells were fixed immediately with 4% formaldehyde, refrigerated, and the extent of phosphorylation of Akt determined using the Akt Cellular Activation of Signaling ELISA Kit (CASE™ Kit for AKT 5473; SABiosciences, Frederick, Md.) following the manufacturer's protocols. The CASE™ Kit for AKT S473 quantifies the amount of activated (phosphorylated) Akt protein relative to total Akt protein in parallel assays using a conventional ELISA format with colorimetric detection. The Akt phosphorylation site is serine 473 and is recognized by one of the antibodies used in one of the two parallel assays to provide a measure of activated Akt protein. The other antibody used in the other parallel assay recognizes Akt to provide a measure of total Akt protein. Both primary antibodies are detected using a horseradish peroxidase-labeled secondary antibody. Addition of the manufacturer's Developing Solution for 10 minutes, followed by addition of the manufacturer's Stop Solution, produces the result which can be measured colorimetrically.

[6] = test system: human retinal endothelial cells; test: Actin stress fiber formation (rhodamine-phalloidin F-actin staining), VEGF, Example 8; type: cell-based; conditions: for effect on VEGF-induced stress fiber pattern: then VEGF 25 ng/ml 30 minutes
Procedure: . […] To counter-stain for nuclei, 100 μl of a 3 μM DAPI (4,6-diamidino-2-phenylindole, dilactate (Invitrogen)) solution was added to each well. After 5 minutes, the cells were washed two times with 100 μl PBS.

VE-Cadherin = test: VE-cadherin phosphorylation (immunoprecipitation, Pro-Q diamond / SYPRO ruby densitometry); type: cell-based, human; conditions: danazol 0.1 μM, VEGF 50 ng/ml
Procedure: The plates were immediately treated to lyse the cells as follows. PBS and the lysis buffer (PBS containing 1% Triton X-100 supplemented with phosphatase inhibitor solutions 1 and 2 (Sigma), protease inhibitor (Sigma) and sodium orthovanadate at a final concentration of 2 mM) were cooled to 4° C. The cells were washed two times with 5 ml of the ice cold PBS and then lysed in 500 μl of the ice cold lysis buffer. The resulting protein extracts were transferred to 1.7 ml microcentrifuge tubes, and cell debris was removed by spinning at 4° C. at 10,000 rpm for 10 minutes. Then, 450 μl of the cleared solution was transferred to tubes containing 25 μl of Protein Dynabeads (Invitrogen) coated with 10 μl C19 anti-VE cadherin polyclonal antibody (Santa Cruz Biotechnology) (coating performed following manufacturer's protocol). The extracts and beads were then incubated overnight at 4° C. on an orbital shaker to capture VE cadherin from the extracts. The beads were then washed four times with ice cold lysis buffer. To release the protein from the beads, they were heated for 10 minutes at 75° C. in SDS loading dye containing 20% reducing dye (Invitrogen).
The released proteins were separated in 4-20% polyacrylamide gels (Invitrogen) at 120 volts for 1 hour. To determine phosphorylation and total protein in the gels, Pro-Q diamond (Invitrogen) and SYPRO ruby (Invitrogen) protein staining were sequentially performed following the manufacturer's protocol. The gels were photographed and densitometry performed using a Kodak imaging station.

[7] = test system: human renal glomerular microvascular endothelial cells; test: ECIS, Example 12, glomerular cells; conditions: danazol 1 μM, S1P 1 μM
[8] = test system: human retinal endothelial cells; test: Actin stress fiber formation, Example 11, retinal cells
[9] = test system: human renal glomerular microvascular endothelial cells; test: Actin stress fiber formation, Example 11, glomerular cells; conditions: danazol 1 μM with TNFα 1 ng/ml
[10] = test system: human retinal endothelial cells; test: Actin stress fiber formation (rhodamine-phalloidin F-actin staining), TNFα, Example 7; conditions: 30 minutes
[11] = test system: human retinal endothelial cells; test: TER of retinal endothelial cell monolayers with steroid receptor antagonists, Example 6
[12] = test system: human retinal endothelial cells; test: TER of retinal endothelial cell monolayers with steroid receptor antagonists and hormones, Example 10
[13] = 0.1 μM hydroxyflutamide followed by 0.1 μM danazol

C#C[C@]1(O)CC[C@H]2[C@@H]3CCC4=Cc5oncc5C[C@]4(C)[C@H]3CC[C@@]21C [Danazol, 17α-pregna-2,4-dien-20-yno[2,3-d]isoxazol-17β-ol]
effect on tube formation (HUVECs [1]; 1 μM or 10 μM): no effect on tube formation | effect on tube formation (HUVECs [1]; 50 μM): effective inhibitor of tube formation | effect on HUVEC migration (HUVECs [2]): significantly inhibit HUVEC migration | effect on TER [3]: enhanced TER measurements | effect on TER [4]: did not appear to have much effect | effect on TER [5]: enhanced TER measurements | effect on Akt phosphorylation (Akt): caused an increase in Akt phosphorylation | effect on VEGF-induced stress fiber pattern ([6]; 0.1 μM danazol 30 minutes): made the stress fibers less pronounced and some diffuse staining appeared | F-actin staining pattern ([6]; 0.1 μM danazol alone): diffuse F-actin staining throughout the cytoplasm | effect on VEGF-induced stress fiber pattern ([6]; 1.0 μM danazol 30 minutes): fewer thick stress fibers, but focal points were seen on contact surfaces | F-actin staining pattern ([6]; 1.0 μM danazol alone): the diffuse staining persisted, but stress fibers and focal points around the perimeter of most cells were visible | effect on VEGF-induced stress fiber pattern ([6]; 10.0 μM danazol 30 minutes): strong stress fiber development with focal points | F-actin staining pattern ([6]; 10.0 μM danazol alone): no longer any diffuse staining, and stress fiber development and focal points were seen | effect on VE-cadherin phosphorylation (VE-Cadherin): caused an increase in VE-cadherin phosphorylation | time after treatment until which there was no effect on ECIS [7]: about 30 hours | effect on S1P-induced cortical actin rings ([8]; danazol 1 μM with S1P 1 μM, at 3 hours): seemed to enhance the cortical rings | effect on TNFα-induced stress fibers ([8]; danazol 1 μM with TNFα 1 ng/ml): decreased the stress fiber formation and/or the thickness of the fibers at all times | effect on TNFα-induced stress fibers [9]: decreased the stress fiber formation and the thickness of the fibers at all times | F-actin staining pattern ([10]; 0.1 μM danazol): diffuse staining throughout the cytoplasm | F-actin staining pattern ([10]; 10.0 μM danazol): stress fibers with multiple focal points | effect on TNFα-induced stress fiber development ([10]; TNFα 50 ng/ml, danazol 0.1 μM or 10 μM, LY294002 10 μM): decreased the number of cells exhibiting stress fiber development | effect on the TER reduction caused by hydroxyflutamide [11, 13]: prevented the reduction caused by hydroxyflutamide | effect on TER compared to the control ([11]; 0.1 μM, Example 6): increased the TER measurements | effect on the TER reduction caused by hydroxyflutamide [12, 13]: prevented the reduction caused by hydroxyflutamide | effect on TER compared to the control ([12]; Example 10, concentrations of Table 10): increased the TER measurements
